Test results reported in US20250000814A1 (DONG-A ST CO., LTD., priority 2021, published 2025).
Counter-ions that a name gives are not always drawn.

Experiments:
[1] = cited from earlier work
[2] = Solubility evaluation for the solubilizer propylene glycol monocaprylate; details: for Propylene glycol monocaprylate solubility: 25° C., 24 hours, 50 mg as memantine free base added to 1 mL
Procedure: The resulting mixture was treated in a shaking constant temperature bath at 25° C. for 24 hours.
<Liquid Chromatography Conditions>

[3] = Oil phase skin permeability screening, Franz diffusion cell; format: in vitro ADME; details: 200 ul of 50 mg/mL salt in propylene glycol monocaprylate, human cadaver skin; for Skin penetration rate: 7 days
Procedure: A pH 7.4 phosphate buffer containing 10% ethanol and 0.02% sodium azide as an aqueous solution was added to the receptor chamber of the Franz diffusion cell, and with the temperature maintained at 32±0.5° C., it was rotated at 600 rpm and stirred.

Compound | Propylene glycol monocaprylate solubility [2] [mg/mL] | other results
CC12CC3CC(C)(C1)CC(N)(C3)C2 [free base, Memantine free base] | – | log P, the partition coefficient [1]: 3.28
CC12CC3CC(C)(C1)CC(N)(C3)C2.CC12CC3CC(C)(C1)CC(N)(C3)C2.O=C(O)CCCCCC(=O)O [hemi-pimelate, Memantine Hemi-Pimelate] | <5 | –
CC12CC3CC(C)(C1)CC(N)(C3)C2.CC12CC3CC(C)(C1)CC(N)(C3)C2.O=C(O)CCCCCCC(=O)O [hemi-suberate, Memantine Hemi-Suberate] | <5 | –
CC12CC3CC(C)(C1)CC(N)(C3)C2 [hydrochloride, Memantine hydrochloride, reference compound] | – | solubility at 24 h ([2]; 25 °C, oil or lipid, thermodynamic from solid): < 5 mg/mL
CC(=O)CCC(=O)O.CC12CC3CC(C)(C1)CC(N)(C3)C2 [levulinate, Memantine Levulinate, reference compound] | – | Skin permeability for 7 days [3]: 3661 ug/cm2; Skin penetration rate [3]: 22 ug/cm2/hr
Memantine Hemi-Fumarate | <5 | –
Memantine Hemi-Malate | <5 | –
Memantine Hemi-Maleate | <5 | –
Memantine Hemi-Naphthalene Disulfonate | <5 | –
Memantine Myristate | – | Skin permeability for 7 days [3]: 1083 ug/cm2; Skin penetration rate [3]: 6 ug/cm2/hr
